Assay [1] concerns Staphylococcus aureus V41. Nature of the assay: standard agar-dilution assay (MIC). In kind it is cell-based. The settings on record: Staphylococcus aureus V41, penicillin-resistant strain, unit assumed. The procedure: (§1) The MIC's in Table II were determined by standard agar-dilution assays. The MIC's in Table III were obtained using a conventional broth-dilution microtiter test.
^b Penicillinresistant strain

In assay [2] the test system is Streptococcus pneumoniae Park I. In kind it is cell-based. Conditions: agar dilution, unit assumed. The procedure: as §1
(In agar dilution, organisms are placed on agar that contains the substance at set levels.)

The test system of assay [3] is Streptococcus pyogenes C203. Nature of the assay: experimental infection in mice (ED50). In kind it is in vivo. The settings on record: doses given 1 and 4 hours postinfection. The procedure: The 23-ester derivatives of DMT of this invention have shown in vivo antimicrobial activity against experimental bacterial infections caused by gram-positive bacteria. When two doses of test compound were admininstered to mice with experimental infections, the activity observed was measured as an ED50 value [effective dose in mg/kg to protect 50% of the test animals: see Warren Wick, et al., J. Bacteriol. 81, 233-235 (1961)].
^a mg/kg × 2; doses given 1 and 4 hours postinfection

In assay [4] the test system is Staphylococcus aureus X400. The experiment in a line: standard agar-dilution assay (MIC). Format: cell-based. Conditions: Staphylococcus aureus X400, methicillin-resistant strain, unit assumed. The procedure:
as §1
^c Methicillinresistant-strain

The subject of assay [5] is Pasteurella multocida 60A. Nature of the assay: conventional broth-dilution microtiter test (MIC). Format: cell-based. Conditions: avian isolate, unit assumed. The procedure: as §1
Assay [6] concerns Mycoplasma gallisepticum. The experiment in a line: conventional broth-dilution microtiter test (MIC). Format: cell-based. Conditions: unit assumed. The procedure:
as §1

Assay [7] concerns Streptococcus sp. 80. Nature of the assay: conventional broth-dilution microtiter test (MIC). In kind it is cell-based. The settings on record: unit assumed. The procedure: as §1
In assay [8] the test system is Staphylococcus aureus. The experiment in a line: conventional broth-dilution microtiter test (MIC). In kind it is cell-based. Conditions: unit assumed. The procedure: as §1
Assay [9] has as its system Pasteurella multocida 17E. The experiment in a line: conventional broth-dilution microtiter test (MIC). Format: cell-based. Conditions: bovine isolate, unit assumed. The procedure: as §1
Assay [10] relates to Mycoplasma synoviae. The experiment in a line: conventional broth-dilution microtiter test (MIC). Conditions: unit assumed. In kind it is cell-based. The procedure: as §1
The test system of assay [11] is Mycoplasma hyorhinis. The experiment in a line: conventional broth-dilution microtiter test (MIC). Format: cell-based. The settings on record: unit assumed. The procedure:
as §1

The test system of assay [12] is Streptococcus Group D X66. Nature of the assay: standard agar-dilution assay (MIC). In kind it is cell-based. The settings on record: unit assumed. The procedure: as §1
Assay [13] has as its system Haemophilus influenzae R252. Nature of the assay: standard agar-dilution assay (MIC). Format: cell-based. The settings on record: Haemophilus influenzae R252, ampicillin-resistant strain, unit assumed. The procedure:
as §1

The test system of assay [14] is Streptococcus pyogenes C203. The experiment in a line: standard agar-dilution assay (MIC). Format: cell-based. The settings on record: unit assumed. The procedure: as §1
Assay [15] concerns Staphylococcus aureus S13E. Nature of the assay: standard agar-dilution assay (MIC). In kind it is cell-based. The settings on record: unit assumed. The procedure:
as §1

The test system of assay [16] is Staphylococcus aureus X1.1. The experiment in a line: standard agar-dilution assay (MIC). In kind it is cell-based. The settings on record: unit assumed. The procedure: as §1
Assay [17] concerns Haemophilus influenzae Holt. The experiment in a line: standard agar-dilution assay (MIC). Conditions: ampicillin-sensitive strain, unit assumed. Format: cell-based. The procedure: as §1
Assay [18] concerns Staphylococcus epidermidis EPI1. The experiment in a line: standard agar-dilution assay (MIC). In kind it is cell-based. The settings on record: unit assumed. The procedure: as §1
Assay [19] deals with Streptococcus Group 9960. Nature of the assay: standard agar-dilution assay (MIC). The settings on record: unit assumed. Format: cell-based. The procedure: as §1
The test system of assay [20] is Staphylococcus epidermidis EPI2. The experiment in a line: standard agar-dilution assay (MIC). In kind it is cell-based. The settings on record: unit assumed. The procedure: as §1

Values after ≈ are worked out from the molar mass of the structure shown.

One may read the ED50 as the dose at which the effect has come halfway, by size or by number of responders. In the case of `CCC1OC(=O)CC(O)C(C)C(OC2OC(C)C(OC3CC(C)(O)C(O)C(C)O3)C(N(C)C)C2O)C(CC=O)CC(C)C(=O)C=CC(C)=CC1COC(=O)OC` (centres unmarked) [Compound 25], the MIC in assay [1] turned out to be 0.5 µg/mL (≈ 0.625 µM); in assay [2] it was 0.06 µg/mL (≈ 0.075 µM); in [4], 0.5 µg/mL (≈ 0.625 µM); in [5], 12.5 µg/mL (≈ 15.6 µM); in assay [6] it was 0.097 µg/mL (≈ 0.121 µM); in [7], 0.78 µg/mL (≈ 0.975 µM). Besides, the MIC in assay [8] was 1.56 µg/mL (≈ 1.95 µM); in [9], 6.25 µg/mL (≈ 7.81 µM); in assay [10] it was 0.097 µg/mL (≈ 0.121 µM); in assay [11], 1.56 µg/mL (≈ 1.95 µM); in assay [12] it was 0.5 µg/mL (≈ 0.625 µM); in [13] it was 8 µg/mL (≈ 10 µM). The MIC in assay [14] amounted to 0.25 µg/mL (≈ 0.313 µM); in assay [15], 0.25 µg/mL (≈ 0.313 µM); in assay [16], 0.25 µg/mL (≈ 0.313 µM); in assay [17], 8 µg/mL (≈ 10 µM); in assay [18] it was 0.5 µg/mL (≈ 0.625 µM); in assay [19] it was 0.5 µg/mL (≈ 0.625 µM). For the same compound, the ED50 was greater than 100 mg/kg in [3] (C203, oral) and 7.6 mg/kg in assay [3] (C203, sc, subcutaneous).

For `CCC(=O)OCC1C=C(C)C=CC(=O)C(C)CC(CC=O)C(OC2OC(C)C(OC3CC(C)(O)C(O)C(C)O3)C(N(C)C)C2OC(=O)CC)C(C)C(O)CC(=O)OC1CC` (centres unmarked) [Compound 3, 2',23-Di-O-Propionyl-DMT], the MIC came out at 0.5 µg/mL (≈ 0.585 µM) in assay [1]; 0.5 µg/mL (≈ 0.585 µM) in assay [2]; 2 µg/mL (≈ 2.34 µM) in [4]; 12.5 µg/mL (≈ 14.6 µM) in assay [5]; 0.78 µg/mL (≈ 0.913 µM) in [6]; 0.78 µg/mL (≈ 0.913 µM) in assay [7]. Besides, the MIC is 0.78 µg/mL (≈ 0.913 µM) in assay [8]; 6.25 µg/mL (≈ 7.32 µM) in [9]; 0.195 µg/mL (≈ 0.228 µM) in [10]; 1.56 µg/mL (≈ 1.83 µM) in assay [11]; 1 µg/mL (≈ 1.17 µM) in assay [12]; 16 µg/mL (≈ 18.7 µM) in [13]. For the same compound, the MIC turned out to be 1 µg/mL (≈ 1.17 µM) in assay [20]; 0.5 µg/mL (≈ 0.585 µM) in assay [14]; 1 µg/mL (≈ 1.17 µM) in assay [15]; 0.5 µg/mL (≈ 0.585 µM) in [16]; 16 µg/mL (≈ 18.7 µM) in assay [17]; 0.5 µg/mL (≈ 0.585 µM) in assay [18]. The compound further had an MIC in assay [19] of 1 µg/mL (≈ 1.17 µM). Moreover, the 50% effective dose (ED50) in assay [3] (C203, oral) was 117 mg/kg; in assay [3] (C203, sc, subcutaneous), greater than 20 mg/kg.
